Measurements as given in paper PMC4440766, “Detection of Peptide-Based Nanoparticles in Blood Plasma by ELISA” (PLoS ONE, 2015).

Experiments:
[1] = ELISA quantification of peptide 5A in blood plasma after intravenous injection of peptide 5A nanoparticles; type: in vivo, Wistar rats
Protocol: (§1) The acrylamide based nanoparticles containing peptide 5A were injected in the lateral tail vein of 3 Wistar rats at a concentration of 17.25 mg of nanoparticle per kg of bodyweight, corresponding to 0.5 mg peptide 5A per kg of bodyweight. Blood samples were collected in lithium heparin plasma microtainer tubes (BD, Franklin Lakes, NJ). A small incision was made in the contralateral tail vein and the blood was collected directly into the tube. Immediately after collecting the blood, the tubes were manually inverted 8 times to ensure mixing with the anti-coagulant. Blood samples were stored on ice for up to 30 minutes before separating the plasma by centrifugation at 2000 g for 10 minutes. No hemolysis was observed.
Samples were collected from each animal immediately after injection (time point 0) and at 15, 30, 60, 120, 240, 480 minutes after injection. All plasma samples were stored at -80°C until further analysis.
The plasma samples were diluted 1/500 in PBS, based on the range of the standard curve and the expected initial plasma concentrations. Streptavidin coated ELISA 96-well microplates (Steffens Biotechnische Analysen, Germany) were rinsed with 100 μl PBS per well and incubated with plasma samples in duplicate, for one hour at room temperature. After washing the wells three times with PBS, the carboxyfluorescein group present on the reporter peptide was detected by incubating with monoclonal (mAb) mouse-anti-fluorescein peroxidase-conjugated IgG (Dianova, Hamburg, Germany) diluted 1:100,000 in PBS with 0.1% BSA for one hour. Subsequently, the wells were washed three times with PBS and incubated with soluble high sensitivity TMB (SDT, Baesweiler, Germany) for 10 minutes in the dark. The enzymatic peroxidase reaction was stopped with 1 M HCl and absorbance at 450 nm was measured on a VICTOR X3 Multilabel Plate Reader (Perkin Elmer, Waltham, MA). All incubations were performed at room temperature on a plate shaker at 650 rpm. The wells were washed with PBS three times both after sample and antibody incubation. The TMB reaction was performed in the dark for 10 minutes. […] The absorbance at 450 nm of the negative controls was considered as background and subtracted from the absorbance of the plasma samples.
Free peptide 5A was used as a positive control in the ELISA described above with a lower limit of detection of 1 ng/mL (data not shown). Nanoparticles containing a known concentration of peptide 5A, were used to generate a standard curve for the quantification of blood plasma samples. The standard curve data were fitted to a Hill curve using Graphpad Prism (Graphpad Software, La Jolla, CA) and the Hill equation was used to calculate the concentration of peptide 5A in blood plasma samples from the absorbance at 450 nm (See S1 Table).

[2] = LC/MS quantification of peptide 5A in blood plasma of nanoparticle injected rats; type: in vivo, Wistar rats; conditions: same rat plasma samples
Protocol: as §1, with “observed. […]” for “observed.”
Peptide 5A standards were prepared by spiking rat plasma with peptide 5A+B and subsequently reducing the disulfide bond between peptide 5A and 5B, yielding free peptide 5A as depicted in Fig 1. […] (Neither the peaks corresponding to the mass of peptide 5B nor the unreduced peptide 5A+B were analyzed, see LC-MS analysis section). […]
Plasma samples for LC/MS were prepared by adding 300 μL of 10 mM TCEP in loading mobile phase mix to 30 μL of sample. […] The filtrate was transferred to autosampler vials and analyzed or frozen at -80°C until analysis.
Samples with expected concentrations higher than the upper limit of quantification were diluted with rat plasma prior to sample preparation. […]

[3] = i.v. nanoparticles 17.25 mg/kg = 0.5 mg peptide 5A per kg, Wistar rats, n = 3

napvsipqKGGC [peptide 5A, reporter peptide napvsipqKGGC functionalized with biotin and carboxyfluorescein, attached to nanoparticles]
peptide 5A plasma concentration (ELISA), highest concentration ([1]; 15 minutes after injection, i.v. lateral tail vein, nanoparticles 17.25 mg/kg = 0.5 mg peptide 5A per kg, male Wistar rats, plasma diluted 1/500 in PBS, mean ± S.E.M., 3 animals): 2706 ± 466 ng/mL
time after injection up to which the peptide was detected in plasma (ELISA) [1, 3]: up to 2 hours
time of highest plasma concentration (ELISA) [1, 3]: 15 min
peptide 5A plasma concentration (ELISA) ([1]; time point 0 (immediately after injection), i.v. lateral tail vein, nanoparticles 17.25 mg/kg = 0.5 mg peptide 5A per kg, male Wistar rats, plasma diluted 1/500 in PBS, mean ± S.E.M., 3 animals): 1661 ± 514 ng/mL
factor by which plasma concentrations measured by LC/MS were higher than by ELISA [2]: ~4
